Results from US11413278B2, “Compounds and methods for promoting stress resistance” (priority 2015, dated 2022).
Like-named read-outs stand apart in the source and are kept apart here.

Experiments:
mTOR = mTOR inhibition (RPS6 phosphorylation status), In-Cell Western; assay type: cell-based, human
Summary of the method: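 WI-38 cells exposed to compounds at 5, 10 and 20 μM for 24 hrs. Fixed cells co-stained overnight at 4° C with anti-RPS and anti-pRPS6 (Ser-235/236) antibodies, then DyLight 680/800 secondaries. Phospho-RPS6 relative to total RPS6 read by near-infrared In-Cell Western imaging.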

[1] = test system: PC12 cells expressing poly(Q)103-Htt-EGFP; assay: Poly(Q) toxicity & viability analysis (cellular model of Huntington's disease); assay type: cell-based, rat; conditions: for M = Huntington's poly-Q toxicity attenuation: score; for K = Huntington's poly-Q toxicity attenuation: summary score
Summary of the method: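 PC12 cells stably carrying inducible poly(Q)103-Htt-EGFP, whose induced expression causes aggregation and toxicity. Viability read 48 hrs later as ATP content by CellTiter-Glo.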

WI-38 cells = conditions: for No H2O2 stress treatment, at 10 uM (fold change): normalized ATP measurement; for Assay 1: H2O2-resistant: YES/NO, if NO, possibly due to repeated freezing/thawing of stocks
NRF2 [2] = assay: in vitro; assay type: cell-based, human
NRF2 [3] = assay: qPCR analysis of NRF2-regulated genes; assay type: cell-based, human; conditions: for Potential NRF2 Activation (>=2 target genes induced, by >=1.5-fold): Assay 13(p); for fold induction at 10 µM: Homo sapiens
Summary of the method: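 WI-38 cells treated with compound at 10 μM for 24 hrs, then processed by Cells-to-Ct for RNA isolation, RT and qPCR of NRF2-regulated genes (HMOX1, NQO1, GCLC, GSTM1). Expression normalized to B2M, PPIA and GAPDH; siRNA knockdown of FOXO3 or NRF2 (10 nM) preceded treatment in some runs.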

[4] = WI-38 cells, 10 μM, (*) = compromised ability to protect cells from H2O2, could be due to stability issue
[5] = asterisks indicate the loss of the ability to protect cells from H2O2 over time
[6] = derived from dose response curves, 0.6-20 uM, H2O2-resistance of WI-38 cells
[7] = read-out: Est. ED50, dose response 0.6-20 μM, H2O2-resistance
[8] = 24 h, Assay 12(o), at 10 uM, qPCR, read-out: Induction of NRF2-regulated genes: HMOX1 normalized fold-change
[9] = 24 h, Assay 12(o), at 10 uM, qPCR, read-out: Induction of NRF2-regulated genes: NQO1 normalized fold-change
[10] = rounded fold change, WI-38 cells, 10 μM, 24 hrs (RP11 for Gr-1D, RP29 for Gr-4D), read-out: Summary of effects on NRF2-regulated genes: HMOX1
[11] = rounded fold change, WI-38 cells, 10 μM, 24 hrs (RP29 for Gr-4D), read-out: Summary of effects on NRF2-regulated genes: NQO1
[12] = 10 μM, 24 hrs, WI-38, read-out: Expression of at least two NRF2 target genes
[13] = 10 μM, 24 hrs, WI-38 cells, qPCR, normalized to B2M, n = 4, read-out: HMOX1 expression, normalized fold change (NRF2-regulated gene)
[14] = 10 μM, 24 hrs, WI-38 cells, qPCR, normalized to B2M, n = 4, read-out: NQO1 expression, normalized fold change (NRF2-regulated gene)
[15] = WI-38 cells, 10 μM, 24 hrs, n=4, qPCR normalized by B2M, read-out: GCLC Normalized fold change
[16] = WI-38 cells, 10 μM, 24 hrs, n=4, qPCR normalized by B2M, read-out: GSTM1 Normalized fold change
[17] = WI-38 cells, 10 μM, 24 hrs, n=4, qPCR normalized by B2M, read-out: HMOX1 Normalized fold change
[18] = WI-38 cells, 10 μM, 24 hrs, n=4, qPCR normalized by B2M, read-out: NQO1 Normalized fold change

SMILES | G = mTOR down-regulation (mTOR; 2-point score) | G = mTOR down-regulation (mTOR; summary score) | M = Huntington's poly-Q toxicity attenuation [1] | K = Huntington's poly-Q toxicity attenuation [1] | H2O2-resistant (WI-38 cells; [4]) | No H2O2 stress treatment, at 10 uM (fold change) (WI-38 cells; WI-38 cells) | Assay 1: H2O2-resistant (WI-38 cells) | H2O2-resistant (WI-38 cells; [5]) | EC50 (WI-38 cells; [6]) | EC50 (WI-38 cells; [7]) | J = NRF2-dependency for H2O2-resistance (NRF2 [2]; score) | J = NRF2-dependency for H2O2-resistance (NRF2 [2]; summary score) | F = Potential NRF2 Activation (NRF2 [3]; 2-point score) | Potential NRF2 Activation (>=2 target genes induced, by >=1.5-fold) (NRF2 [3]) | fold induction at 10 µM (NRF2 [3]; [8]) | fold induction at 10 µM (NRF2 [3]; [9]) | fold induction at 10 µM (NRF2 [3]; [10]) | fold induction at 10 µM (NRF2 [3]; [11]) | fold induction at 10 µM (NRF2 [3]; [12]) | fold induction at 10 µM (NRF2 [3]; [13]) | also measured
COc1ccc(C(=O)/C=C/c2ccccc2Br)c(OC)c1 [Gr-4B] | 0 | 0 | 0 | 0 | YES | 1.18 fold change | YES | YES | 8.9 µM | 5.33 µM | 0 | 0 | 2 | YES | 4.51 | 2.36 | 4.51 | 2.36 | > 1.5 | 4.51 | fold induction at 10 µM (NRF2 [3]; [14]): 2.36; fold induction at 10 µM (NRF2 [3]; [15]): 1.15; fold induction at 10 µM (NRF2 [3]; [16]): 1.15; fold induction at 10 µM (NRF2 [3]; [17]): 4.51; fold induction at 10 µM (NRF2 [3]; [18]): 2.36; F = Potential NRF2 Activation (NRF2 [3]; summary score): 2
COc1ccc(C(=O)/C=C/c2cccc(Cl)c2)c(OC)c1 [Gr-4C] | 0 | 0 | 0 | 0 | YES | 1.08 fold change | YES | YES | 8.4 µM | 6.45 µM | 0 | 0 | 2 | YES | 89.5 | 5 | 89.5 | 5 | > 1.5 | 89.5 | fold induction at 10 µM (NRF2 [3]; 24 h, Assay 12(o), at 10 uM, qPCR, read-out: Induction of NRF2-regulated genes: GCLC normalized fold-change): 2.51; fold induction at 10 µM (NRF2 [3]; 24 h, Assay 12(o), at 10 uM, qPCR, read-out: Induction of NRF2-regulated genes: GSTM1 normalized fold-change): 1.63; fold induction at 10 µM (NRF2 [3]; rounded fold change, WI-38 cells, 10 μM, 24 hrs (RP29 for Gr-4D), read-out: Summary of effects on NRF2-regulated genes: GSTM1): 1.63; fold induction at 10 µM (NRF2 [3]; rounded fold change, WI-38 cells, 10 μM, 24 hrs, read-out: Summary of effects on NRF2-regulated genes: GCLC): 2.51; fold induction at 10 µM (NRF2 [3]; 10 μM, 24 hrs, WI-38 cells, qPCR, normalized to B2M, n = 4, read-out: GCLC expression, normalized fold change (NRF2-regulated gene)): 2.51; fold induction at 10 µM (NRF2 [3]; 10 μM, 24 hrs, WI-38 cells, qPCR, normalized to B2M, n = 4, read-out: GSTM1 expression, normalized fold change (NRF2-regulated gene)): 1.63; fold induction at 10 µM (NRF2 [3]; [14]): 5; fold induction at 10 µM (NRF2 [3]; [15]): 2.51; fold induction at 10 µM (NRF2 [3]; [16]): 1.63; fold induction at 10 µM (NRF2 [3]; [17]): 89.5; fold induction at 10 µM (NRF2 [3]; [18]): 5; F = Potential NRF2 Activation (NRF2 [3]; summary score): 2
